Target: T1, Human KLK1 (Homo sapiens, UniProt P06870)
T1 construct: purchased Callbiochem (Calbiochem)
Experiment: Determination of the IC50 for KLK1 (fluorogenic substrate H-DVal-Leu-Arg-AFC)
Type: biochemical
Settings: 37° C.
In short: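 hKLK1 + H-DVal-Leu-Arg-AFC, 37° C, varied cpd conc. Initial rate by A410 change → residual activity → IC50.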

T1 sequence (P06870 25-262): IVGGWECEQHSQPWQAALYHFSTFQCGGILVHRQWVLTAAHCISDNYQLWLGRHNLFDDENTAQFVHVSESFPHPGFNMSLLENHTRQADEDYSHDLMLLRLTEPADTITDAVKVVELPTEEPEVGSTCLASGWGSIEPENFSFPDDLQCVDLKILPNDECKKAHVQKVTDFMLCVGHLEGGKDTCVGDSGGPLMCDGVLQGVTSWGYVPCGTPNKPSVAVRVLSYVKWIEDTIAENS

Row | Structure (SMILES) | IC50
1 | CCC(C)[C@H](N)C(=O)N[C@@H](C(=O)NCc1ccc(N)nc1)[C@H](O)c1ccccc1 (stereo partly drawn) [Example 224, (S)-2-Amino-3-methyl-pentanoic acid {(1R,2R)-1-[(6-amino-pyridin-3-ylmethyl)-carbamoyl]-2-hydroxy-2-phenyl-ethyl}-amide] | 0.0616 µM
2 | CN1CCC[C@@H]1C(=O)N(C)[C@@H](Cc1ccccc1)C(=O)NCc1ccc(N)nc1 [Example 225, (R)-1-Methyl-pyrrolidine-2-carboxylic acid {(S)-1-[(6-amino-pyridin-3-ylmethyl)-carbamoyl]-2-phenyl-ethyl}-methyl-amide] | 0.0511 µM
3 | Cc1[nH]c(C(=O)N[C@@H](Cc2cccc(C(F)(F)F)c2)C(=O)NCc2ccc(N)nc2)c(C)c1C [Example 230, 3,4,5-Trimethyl-1H-pyrrole-2-carboxylic acid [(S)-1-[(6-amino-pyridin-3-ylmethyl)-carbamoyl]-2-(3-trifluoromethyl-phenyl)-ethyl]-amide] | 0.0203 µM
4 | Cc1cc(C)c(C(=O)N[C@@H](CC2CCCCC2)C(=O)NCc2ccc(N)nc2)[nH]1 [Example 238, 3,5-Dimethyl-1H-pyrrole-2-carboxylic acid {(S)-1-[(6-amino-pyridin-3-ylmethyl)-carbamoyl]-2-cyclohexyl-ethyl}-amide] | 0.0352 µM
5 | Cc1cc(C)c(C(=O)N[C@@H](Cc2ccc(Cl)cc2)C(=O)NCc2ccc(N)nc2)[nH]1 [Example 246, 3,5-Dimethyl-1H-pyrrole-2-carboxylic acid [(S)-1-[(6-amino-pyridin-3-ylmethyl)-carbamoyl]-2-(4-chloro-phenyl)-ethyl]-amide] | 0.0035 µM
6 | Cc1cc(C)c(C(=O)N[C@@H](Cc2cc(F)cc(F)c2)C(=O)NCc2ccc(N)nc2)[nH]1 [Example 249, 3,5-Dimethyl-1H-pyrrole-2-carboxylic acid [(S)-1-[(6-amino-pyridin-3-ylmethyl)-carbamoyl]-2-(3,5-difluoro-phenyl)-ethyl]-amide] | 0.0069 µM
7 | Cc1cc(C)c(C(=O)N[C@@H](Cc2c(F)c(F)c(F)c(F)c2F)C(=O)NCc2ccc(N)nc2)[nH]1 [Example 251, 3,5-Dimethyl-1H-pyrrole-2-carboxylic acid {(S)-1-[(6-amino-pyridin-3-ylmethyl)-carbamoyl]-2-pentafluorophenyl-ethyl}-amide] | 0.128 µM
8 | Cc1cc(C)c(C(=O)N[C@@H](Cc2ccc(-c3ccccc3)cc2)C(=O)NCc2ccc(N)nc2)[nH]1 [Example 252, 3,5-Dimethyl-1H-pyrrole-2-carboxylic acid {(S)-1-[(6-amino-pyridin-3-ylmethyl)-carbamoyl]-2-biphenyl-4-yl-ethyl}-amide] | 0.0432 µM
9 | COc1ccc(C[C@H](NC(=O)c2[nH]c(C)cc2C)C(=O)NCc2ccc(N)nc2)cc1 [Example 254, 3,5-Dimethyl-1H-pyrrole-2-carboxylic acid [(S)-1-[(6-amino-pyridin-3-ylmethyl)-carbamoyl]-2-(4-methoxy-phenyl)-ethyl]-amide] | 0.0372 µM
10 | CCOc1ccc(C[C@H](NC(=O)c2[nH]c(C)cc2C)C(=O)NCc2ccc(N)nc2)cc1 [Example 255, 3,5-Dimethyl-1H-pyrrole-2-carboxylic acid [(S)-1-[(6-amino-pyridin-3-ylmethyl)-carbamoyl]-2-(4-ethoxy-phenyl)-ethyl]-amide] | 0.105 µM
11 | Cc1cc(C)c(C(=O)N[C@@H](Cc2ccc(C(C)(C)C)cc2)C(=O)NCc2ccc(N)nc2)[nH]1 [Example 256, 3,5-Dimethyl-1H-pyrrole-2-carboxylic acid [(S)-1-[(6-amino-pyridin-3-ylmethyl)-carbamoyl]-2-(4-tert-butyl-phenyl)-ethyl]-amide] | 0.122 µM
12 | Cc1cc[nH]c1C(=O)N[C@@H](Cc1ccc(C(F)(F)F)cc1)C(=O)NCc1ccc(N)nc1 [Example 258, 3-Methyl-1H-pyrrole-2-carboxylic acid [(S)-1-[(6-amino-pyridin-3-ylmethyl)-carbamoyl]-2-(4-trifluoromethyl-phenyl)-ethyl]-amide] | 0.0103 µM

Second part, the molecule after the results:

Row | IC50 | Structure (SMILES)
13 | 0.009 µM | Cc1cc(C)c(C(=O)N[C@@H](Cc2cccc(F)c2)C(=O)NCc2ccc(N)nc2)[nH]1 [Example 236, 3,5-Dimethyl-1H-pyrrole-2-carboxylic acid [(S)-1-[(6-amino-pyridin-3-ylmethyl)-carbamoyl]-2-(3-fluoro-phenyl)-ethyl]-amide]
14 | 0.0109 µM | Cc1cc(C)c(C(=O)N[C@@H](Cc2ccccc2)C(=O)NCc2ccc(N)nc2)[nH]1 [Example 237, 3,5-Dimethyl-1H-pyrrole-2-carboxylic acid {(S)-1-[(6-amino-pyridin-3-ylmethyl)-carbamoyl]-2-phenyl-ethyl}-amide]
15 | 0.0065 µM | Cc1cc(C)c(C(=O)N[C@@H](Cc2ccccc2Cl)C(=O)NCc2ccc(N)nc2)[nH]1 [Example 239, 3,5-Dimethyl-1H-pyrrole-2-carboxylic acid [(S)-1-[(6-amino-pyridin-3-ylmethyl)-carbamoyl]-2-(2-chloro-phenyl)-ethyl]-amide]
16 | 0.0015 µM | Cc1cc(C)c(C(=O)N[C@@H](Cc2ccccc2C(F)(F)F)C(=O)NCc2ccc(N)nc2)[nH]1 [Example 240, 3,5-Dimethyl-1H-pyrrole-2-carboxylic acid [(S)-1-[(6-amino-pyridin-3-ylmethyl)-carbamoyl]-2-(2-trifluoromethyl-phenyl)-ethyl]-amide]
17 | 0.0038 µM | Cc1cc(C)c(C(=O)N[C@@H](Cc2c[nH]c3ccccc23)C(=O)NCc2ccc(N)nc2)[nH]1 [Example 241, 3,5-Dimethyl-1H-pyrrole-2-carboxylic acid [(S)-1-[(6-amino-pyridin-3-ylmethyl)-carbamoyl]-2-(1H-indol-3-yl)-ethyl]-amide]
18 | 0.0078 µM | Cc1cc(C)c(C(=O)N[C@@H](Cc2ccccc2C)C(=O)NCc2ccc(N)nc2)[nH]1 [Example 244, 3,5-Dimethyl-1H-pyrrole-2-carboxylic acid {(S)-1-[(6-amino-pyridin-3-ylmethyl)-carbamoyl]-2-o-tolyl-ethyl}-amide]
19 | 0.2 µM | Cc1cc(C)c(C(=O)N[C@@H](Cc2ccc(O)cc2)C(=O)NCc2ccc(N)nc2)[nH]1 [Example 247, 3,5-Dimethyl-1H-pyrrole-2-carboxylic acid [(S)-1-[(6-amino-pyridin-3-ylmethyl)-carbamoyl]-2-(4-hydroxy-phenyl)-ethyl]-amide]
20 | 0.0008 µM | Cc1cc(C)c(C(=O)N[C@@H](Cc2csc3ccccc23)C(=O)NCc2ccc(N)nc2)[nH]1 [Example 250, 3,5-Dimethyl-1H-pyrrole-2-carboxylic acid {(S)-1-[(6-amino-pyridin-3-ylmethyl)-carbamoyl]-2-benzo[b]thiophen-3-yl-ethyl}-amide]
21 | 0.0125 µM | Cc1ccc(C[C@H](NC(=O)c2[nH]c(C)cc2C)C(=O)NCc2ccc(N)nc2)cc1 [Example 253, 3,5-Dimethyl-1H-pyrrole-2-carboxylic acid {(S)-1-[(6-amino-pyridin-3-ylmethyl)-carbamoyl]-2-p-tolyl-ethyl}-amide]
22 | 0.0121 µM | Cc1cc(C)c(C(=O)N[C@@H](Cc2ccc3ccccc3n2)C(=O)NCc2ccc(N)nc2)[nH]1 [Example 257, 3,5-Dimethyl-1H-pyrrole-2-carboxylic acid {(S)-1-[(6-amino-pyridin-3-ylmethyl)-carbamoyl]-2-quinolin-2-yl-ethyl}-amide]

From patent publication US20100076015A1, “Aminopyridine Derivatives” (VANTIA LIMITED, priority 2008, published 2010)
